Consider 29 molecules from patent publication US20240398811A1, “PRC2 INHIBITORS FOR USE IN TREATING BLOOD DISORDERS” (ORIC Pharmaceuticals, Inc., priority 2021, published 2024).

Molecules are shown by their SMILES.

For orientation: IC50 means the concentration at which inhibition is half-maximal. Low readings indicate greater potency, high ones weaker potency.

Chain of purified human, His-tagged PRC2 complex (O75530 whole entry): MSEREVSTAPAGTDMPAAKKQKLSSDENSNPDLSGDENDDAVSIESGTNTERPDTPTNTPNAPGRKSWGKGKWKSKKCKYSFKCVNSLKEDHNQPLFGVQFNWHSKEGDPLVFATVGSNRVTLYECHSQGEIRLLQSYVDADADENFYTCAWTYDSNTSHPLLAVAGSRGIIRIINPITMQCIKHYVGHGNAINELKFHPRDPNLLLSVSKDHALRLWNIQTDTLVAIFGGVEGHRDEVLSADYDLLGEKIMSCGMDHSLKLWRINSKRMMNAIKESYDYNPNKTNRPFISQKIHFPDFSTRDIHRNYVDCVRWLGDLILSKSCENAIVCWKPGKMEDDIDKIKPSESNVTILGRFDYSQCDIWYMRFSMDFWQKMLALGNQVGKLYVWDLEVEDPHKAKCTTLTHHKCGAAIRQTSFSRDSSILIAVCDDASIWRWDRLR
Chain of purified human, His-tagged PRC2 complex (Q15910 whole entry partner): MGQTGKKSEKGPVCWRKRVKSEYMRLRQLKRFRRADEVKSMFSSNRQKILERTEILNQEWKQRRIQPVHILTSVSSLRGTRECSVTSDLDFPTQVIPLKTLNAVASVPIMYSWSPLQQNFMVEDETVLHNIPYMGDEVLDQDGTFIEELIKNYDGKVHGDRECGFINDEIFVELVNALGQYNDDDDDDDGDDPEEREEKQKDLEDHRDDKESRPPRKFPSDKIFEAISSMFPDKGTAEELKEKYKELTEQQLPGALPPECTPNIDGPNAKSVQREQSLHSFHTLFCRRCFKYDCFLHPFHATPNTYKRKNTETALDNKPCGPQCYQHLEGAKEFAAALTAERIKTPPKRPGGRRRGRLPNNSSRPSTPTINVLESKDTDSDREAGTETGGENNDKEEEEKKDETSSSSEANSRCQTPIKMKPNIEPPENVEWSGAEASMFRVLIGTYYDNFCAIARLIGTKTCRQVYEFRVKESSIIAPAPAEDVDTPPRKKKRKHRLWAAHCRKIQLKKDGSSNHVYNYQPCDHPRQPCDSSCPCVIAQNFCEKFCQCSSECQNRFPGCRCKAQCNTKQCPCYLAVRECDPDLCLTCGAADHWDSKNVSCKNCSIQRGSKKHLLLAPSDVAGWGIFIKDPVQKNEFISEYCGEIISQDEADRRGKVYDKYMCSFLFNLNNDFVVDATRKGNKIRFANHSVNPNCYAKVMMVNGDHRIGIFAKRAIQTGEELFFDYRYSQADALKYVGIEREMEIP
Chain of purified human, His-tagged PRC2 complex (Q15022 whole entry partner): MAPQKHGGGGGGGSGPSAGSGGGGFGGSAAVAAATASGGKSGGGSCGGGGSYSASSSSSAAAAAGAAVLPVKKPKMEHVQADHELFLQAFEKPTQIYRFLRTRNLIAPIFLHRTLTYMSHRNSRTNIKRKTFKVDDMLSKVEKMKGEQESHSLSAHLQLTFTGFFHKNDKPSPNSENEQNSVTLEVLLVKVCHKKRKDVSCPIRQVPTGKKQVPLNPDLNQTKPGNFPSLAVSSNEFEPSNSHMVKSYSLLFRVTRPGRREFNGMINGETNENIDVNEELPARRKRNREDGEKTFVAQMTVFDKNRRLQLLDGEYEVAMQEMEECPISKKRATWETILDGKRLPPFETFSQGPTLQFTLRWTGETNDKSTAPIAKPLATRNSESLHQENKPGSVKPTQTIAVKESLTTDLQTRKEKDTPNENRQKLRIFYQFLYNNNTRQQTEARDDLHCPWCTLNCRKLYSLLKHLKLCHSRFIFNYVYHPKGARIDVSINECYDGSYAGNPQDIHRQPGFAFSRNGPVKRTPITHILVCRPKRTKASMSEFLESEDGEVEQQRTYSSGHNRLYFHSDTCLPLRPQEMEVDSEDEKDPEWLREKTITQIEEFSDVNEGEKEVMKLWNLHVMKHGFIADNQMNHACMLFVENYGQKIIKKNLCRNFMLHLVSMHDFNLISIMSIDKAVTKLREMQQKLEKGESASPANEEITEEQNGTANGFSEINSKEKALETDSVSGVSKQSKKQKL
Chain of purified human, His-tagged PRC2 complex (Q6ZN18 whole entry partner): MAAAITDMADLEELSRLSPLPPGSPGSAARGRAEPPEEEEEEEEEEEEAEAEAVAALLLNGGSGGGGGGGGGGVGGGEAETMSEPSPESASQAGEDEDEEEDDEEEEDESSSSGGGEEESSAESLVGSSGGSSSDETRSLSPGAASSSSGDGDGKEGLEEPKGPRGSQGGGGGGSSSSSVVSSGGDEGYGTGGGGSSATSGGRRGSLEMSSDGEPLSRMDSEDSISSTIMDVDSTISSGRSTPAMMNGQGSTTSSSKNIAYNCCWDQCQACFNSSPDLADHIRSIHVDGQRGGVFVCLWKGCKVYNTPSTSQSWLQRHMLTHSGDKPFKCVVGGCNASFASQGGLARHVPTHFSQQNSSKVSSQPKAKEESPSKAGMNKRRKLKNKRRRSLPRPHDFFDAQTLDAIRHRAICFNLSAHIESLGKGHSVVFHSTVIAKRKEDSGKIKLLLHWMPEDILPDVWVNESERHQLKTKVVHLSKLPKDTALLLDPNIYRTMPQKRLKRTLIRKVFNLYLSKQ
Chain of purified human, His-tagged PRC2 complex (Q09028 whole entry partner): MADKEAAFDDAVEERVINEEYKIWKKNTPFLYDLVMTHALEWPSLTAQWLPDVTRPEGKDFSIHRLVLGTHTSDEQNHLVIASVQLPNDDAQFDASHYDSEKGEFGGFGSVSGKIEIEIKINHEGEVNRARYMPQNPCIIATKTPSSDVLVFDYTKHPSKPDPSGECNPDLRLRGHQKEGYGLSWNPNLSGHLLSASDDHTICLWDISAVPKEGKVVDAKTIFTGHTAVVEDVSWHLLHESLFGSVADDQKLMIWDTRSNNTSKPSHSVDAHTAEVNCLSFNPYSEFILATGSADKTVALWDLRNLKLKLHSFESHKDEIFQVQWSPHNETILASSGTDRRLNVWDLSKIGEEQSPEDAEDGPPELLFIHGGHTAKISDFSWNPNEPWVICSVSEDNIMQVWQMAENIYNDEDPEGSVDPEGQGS

The experiment concerns the target purified human, His-tagged PRC2 complex (Homo sapiens (Human), UniProt O75530). As to the kind of experiment: Hot Spot HMT assay, inhibition of PRC2 enzymatic activity. In kind it is biochemical. The note with it: 10 nM PRC2 complex, 1 μM 3H-SAM, core histone H3, 10-point dose-response. The method, boiled down: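 Methyl transfer from 1 μM tritiated SAM onto 0.05 mg/ml core histone H3, catalysed by 10 nM His/Flag-tagged human PRC2 holoenzyme, was run 1 hr at 30° C after a 20 min compound preincubation. Serial dilutions began at 1.0 μM; product captured on filters and counted.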
`CN(C)C(=O)c1ccc(-c2cnc(NCc3c(F)ccc4c3CCO4)n3cc(C#N)nc23)c(Cl)c1` [Example 31, 3-chloro-4-(2-cyano-5-(((5-fluoro-2,3-dihydrobenzofuran-4-yl)methyl)amino)imidazo[1,2-c]pyrimidin-8-yl)-N,N-dimethylbenzamide] returned a 50% inhibitory concentration (IC50) below 100 nM.

The molecule `CN1CCc2cc(-c3cnc(NCc4c(F)ccc5c4CCO5)n4cc(C#N)nc34)ccc2C1` [Example 159, 5-(((5-fluoro-2,3-dihydrobenzofuran-4-yl)methyl)amino)-8-(2-methyl-1,2,3,4-tetrahydroisoquinolin-6-yl)imidazo[1,2-c]pyrimidine-2-carbonitrile] yielded an IC50 of 100 to 500 nM.

Molecule `COc1cc(-c2cnc(NCc3c(F)ccc4c3CCO4)n3cc(C#N)nc23)ccn1` [Example 113, 5-(((5-fluoro-2,3-dihydrobenzofuran-4-yl)methyl)amino)-8-(2-methoxypyridin-4-yl)imidazo[1,2-c]pyrimidine-2-carbonitrile] yielded a half-inhibitory concentration (IC50) below 100 nM.

Regarding `CNC(=O)c1cn2c(NCc3c(F)ccc4c3CCO4)ncc(-c3cc(C)nn3C)c2n1` [Example 20, 8-(1,3-dimethyl-1H-pyrazol-5-yl)-5-(((5-fluoro-2,3-dihydrobenzofuran-4-yl)methyl)amino)-N-methylimidazo[1,2-c]pyrimidine-2-carboxamide], the 50% inhibitory concentration (IC50) was below 100 nM.

The molecule `Cc1cc(-c2cnc(NCc3c(F)ccc4c3CCO4)n3cc(C#N)nc23)n(C)n1` [Example 86, 8-(1,3-dimethyl-1H-pyrazol-5-yl)-5-(((5-fluoro-2,3-dihydrobenzofuran-4-yl)methyl)amino)imidazo[1,2-c]pyrimidine-2-carbonitrile] gave an IC50 below 100 nM.

For the molecule `CN(C)S(=O)(=O)c1ccc(-c2cnc(NCc3c(F)ccc4c3CCO4)n3cc(C#N)nc23)cc1` [Example 58, 4-(2-cyano-5-(((5-fluoro-2,3-dihydrobenzofuran-4-yl)methyl)amino)imidazo[1,2-c]pyrimidin-8-yl)-N,N-dimethylbenzenesulfonamide], the half-maximal inhibitory concentration (IC50) was below 100 nM.

Molecule `COCCn1cc(-c2cnc(NCc3c(F)ccc4c3CCO4)n3cc(C#N)nc23)cn1` [Example 117, 5-(((5-fluoro-2,3-dihydrobenzofuran-4-yl)methyl)amino)-8-(1-(2-methoxyethyl)-1H-pyrazol-4-yl)imidazo[1,2-c]pyrimidine-2-carbonitrile] showed an IC50 of 100 to 500 nM.

For the molecule `Cc1nn(C(C)C)c(C)c1-c1cnc(NCc2c(F)ccc3c2CCO3)n2cc(C#N)nc12` [Example 92, 5-(((5-fluoro-2,3-dihydrobenzofuran-4-yl)methyl)amino)-8-(1-isopropyl-3,5-dimethyl-1H-pyrazol-4-yl)imidazo[1,2-c]pyrimidine-2-carbonitrile], the half-inhibitory concentration (IC50) lay in the range of 100 to 500 nM.

`CC(c1ccc(-c2cnc(NCc3c(F)ccc4c3CCO4)n3cc(C#N)nc23)cc1)N(C)C` (centres unmarked) [Example 199, 8-(4-(1-(dimethylamino)ethyl)phenyl)-5-(((5-fluoro-2,3-dihydrobenzofuran-4-yl)methyl)amino)imidazo[1,2-c]pyrimidine-2-carbonitrile] returned an IC50 below 100 nM.

Turning to `N#Cc1cn2c(NCc3c(F)ccc4c3CCO4)ncc(-c3ccc(S(=O)(=O)C(F)(F)F)cc3)c2n1` [Example 82, 5-(((5-fluoro-2,3-dihydrobenzofuran-4-yl)methyl)amino)-8-(4-((trifluoromethyl)sulfonyl)phenyl)imidazo[1,2-c]pyrimidine-2-carbonitrile], the IC50 lay within 100 to 500 nM.

The molecule `CN(C)Cc1ccc(-c2cnc(NCc3c(F)ccc4c3CCO4)n3cc(C#N)nc23)c(Cl)c1F` [Example 83, 8-(2-chloro-4-((dimethylamino)methyl)-3-fluorophenyl)-5-(((5-fluoro-2,3-dihydrobenzofuran-4-yl)methyl)amino)imidazo[1,2-c]pyrimidine-2-carbonitrile] registered a concentration for half-maximal inhibition (IC50) below 100 nM.

Regarding `Cc1ncccc1-c1cnc(NCc2c(F)ccc3occc23)n2cc(C#N)nc12` [Example 22, 5-(((5-fluorobenzofuran-4-yl)methyl)amino)-8-(2-methylpyridin-3-yl)imidazo[1,2-c]pyrimidine-2-carbonitrile], the IC50 fell in the range of 100 to 500 nM.

`CN(C)Cc1cc(F)c(-c2cnc(NCc3c(F)ccc4c3CCO4)n3cc(C#N)nc23)cc1F` [Example 39, 8-(4-((dimethylamino)methyl)-2,5-difluorophenyl)-5-(((5-fluoro-2,3-dihydrobenzofuran-4-yl)methyl)amino)imidazo[1,2-c]pyrimidine-2-carbonitrile]: the IC50 was below 100 nM.

With `CN(C)Cc1ncc(-c2cnc(NCc3c(F)ccc4c3CCO4)n3cc(C#N)nc23)cc1F` [Example 40, 8-(6-((dimethylamino)methyl)-5-fluoropyridin-3-yl)-5-(((5-fluoro-2,3-dihydrobenzofuran-4-yl)methyl)amino)imidazo[1,2-c]pyrimidine-2-carbonitrile], the IC50 is below 100 nM.

In the case of `Cc1nn(C)cc1-c1cnc(NCc2c(F)ccc3c2CCO3)n2cc(C#N)nc12` [Example 72, 8-(1,3-dimethyl-1H-pyrazol-4-yl)-5-(((5-fluoro-2,3-dihydrobenzofuran-4-yl)methyl)amino)imidazo[1,2-c]pyrimidine-2-carbonitrile], the IC50 is below 100 nM.

For the molecule `CNCc1cc(-c2cnc(NCc3c(F)ccc4c3CCO4)n3cc(C#N)nc23)n(C)n1` [Example 211, 5-(((5-fluoro-2,3-dihydrobenzofuran-4-yl)methyl)amino)-8-(1-methyl-3-((methylamino)methyl)-1H-pyrazol-5-yl)imidazo[1,2-c]pyrimidine-2-carbonitrile], the concentration for half-maximal inhibition (IC50) is below 100 nM.

Molecule `COc1cc(-c2cnc(NCc3c(F)ccc4c3CCO4)n3cc(C#N)nc23)c(OC)cn1` [Example 125, 8-(2,5-dimethoxypyridin-4-yl)-5-(((5-fluoro-2,3-dihydrobenzofuran-4-yl)methyl)amino)imidazo[1,2-c]pyrimidine-2-carbonitrile] gave an IC50 below 100 nM.

`COCCOc1ccc(-c2cnc(NCc3c(F)ccc4c3CCO4)n3cc(C#N)nc23)cn1` [Example 158, 5-(((5-fluoro-2,3-dihydrobenzofuran-4-yl)methyl)amino)-8-(6-(2-methoxyethoxy)pyridin-3-yl)imidazo[1,2-c]pyrimidine-2-carbonitrile] displayed an IC50 of 100 to 500 nM.

For `N#Cc1cc(-c2cnc(NCc3c(F)ccc4c3CCO4)n3cc(C#N)nc23)ccn1` [Example 188, 8-(2-cyanopyridin-4-yl)-5-(((5-fluoro-2,3-dihydrobenzofuran-4-yl)methyl)amino)imidazo[1,2-c]pyrimidine-2-carbonitrile], the half-inhibitory concentration (IC50) is 100 to 500 nM.

For the molecule `Cc1cc(C(=O)N(C)C)c(F)cc1-c1cnc(NCc2c(F)ccc3c2CCO3)n2cc(C#N)nc12` [Example 43, 4-(2-cyano-5-(((5-fluoro-2,3-dihydrobenzofuran-4-yl)methyl)amino)imidazo[1,2-c]pyrimidin-8-yl)-2-fluoro-N,N,5-trimethylbenzamide], the concentration for half-maximal inhibition (IC50) was below 100 nM.

`N#Cc1cn2c(NCc3c(F)ccc4c3CCO4)ncc(-c3ccc(CN4CC5CC5C4)cc3)c2n1` (centres unmarked) [Example 52, 8-(4-((3-azabicyclo[3.1.0]hexan-3-yl)methyl)phenyl)-5-(((5-fluoro-2,3-dihydrobenzofuran-4-yl)methyl)amino)imidazo[1,2-c]pyrimidine-2-carbonitrile] showed an IC50 below 100 nM.

On to `COc1ncc(-c2cnc(NCc3c(F)ccc4c3CCO4)n3cc(C#N)nc23)cc1C#N` [Example 130, 8-(5-cyano-6-methoxypyridin-3-yl)-5-(((5-fluoro-2,3-dihydrobenzofuran-4-yl)methyl)amino)imidazo[1,2-c]pyrimidine-2-carbonitrile], for which the IC50 was in the range of 100 to 500 nM.

Molecule `CN(C)Cc1ccc(-c2cnc(NCc3c(F)ccc4c3CCO4)n3cc(C#N)nc23)c(C#N)c1` [Example 198, 8-(2-cyano-4-((dimethylamino)methyl)phenyl)-5-(((5-fluoro-2,3-dihydrobenzofuran-4-yl)methyl)amino)imidazo[1,2-c]pyrimidine-2-carbonitrile] gave an IC50 below 100 nM.

Regarding `CNCc1ccc(-c2cnc(NCc3c(F)ccc4c3CCO4)n3cc(C#N)nc23)cc1` [Example 185, 5-(((5-fluoro-2,3-dihydrobenzofuran-4-yl)methyl)amino)-8-(4-((methylamino)methyl)phenyl)imidazo[1,2-c]pyrimidine-2-carbonitrile], the IC50 is below 100 nM.

For `CNCc1ccc(-c2cnc(NCc3c(F)ccc4c3CCO4)n3cc(C#N)nc23)cc1F` [Example 197, 5-(((5-fluoro-2,3-dihydrobenzofuran-4-yl)methyl)amino)-8-(3-fluoro-4-((methylamino)methyl)phenyl)imidazo[1,2-c]pyrimidine-2-carbonitrile], the IC50 is below 100 nM.

For the molecule `Cc1cc(CN(C)C)c(F)cc1-c1cnc(NCc2c(F)ccc3c2CCO3)n2cc(C#N)nc12` [Example 84, 8-(4-((dimethylamino)methyl)-5-fluoro-2-methylphenyl)-5-(((5-fluoro-2,3-dihydrobenzofuran-4-yl)methyl)amino)imidazo[1,2-c]pyrimidine-2-carbonitrile], the IC50 is 100 to 500 nM.

Take `COC1CN(Cc2ccc(-c3cnc(NCc4c(F)ccc5c4CCO5)n4cc(C#N)nc34)cc2)C1` [Example 50, 5-(((5-fluoro-2,3-dihydrobenzofuran-4-yl)methyl)amino)-8-(4-((3-methoxyazetidin-1-yl)methyl)phenyl)imidazo[1,2-c]pyrimidine-2-carbonitrile]: the 50% inhibitory concentration (IC50) is below 100 nM.

In the case of `CN(C)c1ccc(-c2cnc(NCc3c(F)ccc4c3CCO4)n3cc(C#N)nc23)cn1` [Example 60, 8-(6-(dimethylamino)pyridin-3-yl)-5-(((5-fluoro-2,3-dihydrobenzofuran-4-yl)methyl)amino)imidazo[1,2-c]pyrimidine-2-carbonitrile], the IC50 fell in the range of 100 to 500 nM.

For `CN(C)Cc1ccc(-c2cnc(NCc3c(F)ccc4c3CCO4)n3cc(C#N)nc23)cc1` [Example 112, 8-(4-((dimethylamino)methyl)phenyl)-5-(((5-fluoro-2,3-dihydrobenzofuran-4-yl)methyl)amino)imidazo[1,2-c]pyrimidine-2-carbonitrile], the half-inhibitory concentration (IC50) was below 100 nM.
